Test results published in patent publication US10738028B2, “Spiro three-membered ring, spiro five-membered ring peptide deformylase inhibitor and use thereof in antibacteria and anti-tumor” (priority 2016, dated 2020).

Experiments:
Format in all cases: cell-based
[1] = tested on: HCT-116 colorectal cancer cell line; assay: CCK-8 proliferation inhibition; conditions: concentration of 30 μM, 72 hours, CCK-8
In short: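 Cells were plated overnight at 2000 cells/well, then compound in culture medium was added at a range of final concentrations. After 72 hours in a CO2 incubator, medium was replaced with 1:10 CCK-8 solution for the read-out.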

[2] = tested on: MGC-803 gastric cancer cell line; assay: CCK-8 proliferation inhibition; conditions: Homo sapiens, MGC-803, 72 h, concentration of 30 μM
In short: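 Proliferation was measured with 1:10 diluted CCK-8 after a 72-hour incubation with the inhibitors at various final concentrations, using 1‰ DMSO as the control. Cells were plated at 2000 per well. Culture media contained 10% newborn bovine serum: 1640 for Jurkat and MGC-803, F12 for PC3, DMEM high glucose for MCF-7.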

[3] = tested on: BEL-7402 liver cancer cell line; assay: CCK-8 proliferation inhibition; conditions: concentration of 30 μM
In short: (§1)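 Plating at 2000 cells/well, then incubation overnight at 37° C. Next, a range of compound concentrations for 72 hours (control 1‰ DMSO). Finally, medium decanted and CCK-8 diluted 1:10 added.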

[4] = tested on: A549 lung cancer cell line; assay: CCK-8 proliferation inhibition; conditions: Homo sapiens, A549, 72 h, concentration of 30 μM
In short: as §1

[5] = tested on: Enterococcus faecium (EFM); assay: MIC, two-fold agar dilution (CLSI), clinical isolates
In short: (§2)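 MIC values come from two-fold agar dilution run per CLSI antimicrobial susceptibility testing procedure.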

[6] = tested on: Enterococcus faecalis (EFA); assay: as above
In short: as §2

[7] = tested on: methicillin-resistant Staphylococcus aureus (MRSA); assay: as above
In short: as §2

[8] = tested on: Moraxella catarrhalis (BCA); assay: as above
In short: as §2

[9] = tested on: Streptococcus pneoumoniae (SPN); assay: as above
In short: as §2

[10] = tested on: methicillin-resistant Staphylococcus epidermidis (MRSE); assay: as above
In short: as §2

[11] = tested on: methicillin-sensitive Staphylococcus epidermidis (MSSE); assay: as above
In short: as §2

[12] = tested on: methicillin-sensitive Staphylococcus aureus (MSSA); assay: as above
In short: as §2

[13] = tested on: Escherichia coli (including ESBLs, non-ESBLs); assay: as above
In short: as §2

CCCC[C@H](CC(=O)NO)C(=O)N1CC2(CC2)C[C@H]1C(=O)Nc1nc(C)cs1 [Example 51, (S)-5-((R)-2-(2-(hydroxyamino)-2-oxoethyl)hexanoyl)-N-(4-methylthiazol-2-yl)-5-spiro[2.4]heptane-6-carboxamide] showed an inhibition at 30 µM ([1]; Homo sapiens, HCT-116, 72 h, read-out: HCT116 inhibition rate/%) of over 50%, an HCT116 inhibition rate/% ([1]; 30 µM) of 65% and an inhibition at 30 µM [2] of 40%. The inhibition at 30 µM ([3]; Homo sapiens, Bel-7402, 72 h) was over 50%, the “Inhibition of proliferation, Liver cancer BEL-7402” value ([3]; 72 hours, 30 µM) was 68% and the inhibition at 30 µM [4] was 44%. The Anti-bacterial activity (MIC), strain EFM 15-1 ([5]; clinical isolate EFM 15-1) was 2 µg/mL, the Anti-bacterial activity (MIC), strain EFM 15-2 ([5]; clinical isolate EFM 15-2) was 2 µg/mL and the Anti-bacterial activity (MIC), strain EFM 15-3 ([5]; clinical isolate EFM 15-3) was 0.5 µg/mL. The Anti-bacterial activity (MIC), strain EFM 15-4 ([5]; clinical isolate EFM 15-4) was 2 µg/mL, the Anti-bacterial activity (MIC), strain EFM 15-5 ([5]; clinical isolate EFM 15-5) was 1 µg/mL and the Anti-bacterial activity (MIC), strain EFM 15-6 ([5]; clinical isolate EFM 15-6) was 2 µg/mL. It also gave an Anti-bacterial activity (MIC), strain EFA 15-1 ([6]; clinical isolate EFA 15-1) of 8 µg/mL, an Anti-bacterial activity (MIC), strain EFA 15-2 ([6]; clinical isolate EFA 15-2) of 8 µg/mL and an Anti-bacterial activity (MIC), strain EFA 15-3 ([6]; clinical isolate EFA 15-3) of 2 µg/mL. It also gave an Anti-bacterial activity (MIC), strain EFA 15-4 ([6]; clinical isolate EFA 15-4) of 8 µg/mL, an Anti-bacterial activity (MIC), strain EFA 15-5 ([6]; clinical isolate EFA 15-5) of 8 µg/mL and an Anti-bacterial activity (MIC), strain EFA 15-6 ([6]; clinical isolate EFA 15-6) of 8 µg/mL. It also gave an Anti-bacterial activity (MIC), strain EFA 15-9 ([6]; clinical isolate EFA 15-9) of 8 µg/mL, an Anti-bacterial activity (MIC), strain MRSA 15-1 ([7]; clinical isolate MRSA 15-1) of 0.25 µg/mL and an Anti-bacterial activity (MIC), strain MRSA 15-2 ([7]; clinical isolate MRSA 15-2) of 1 µg/mL. For the same compound, the Anti-bacterial activity (MIC), strain MRSA 15-3 ([7]; clinical isolate MRSA 15-3) was 0.2 µg/mL, the Anti-bacterial activity (MIC), strain MRSA 15-4 ([7]; clinical isolate MRSA 15-4) was 0.5 µg/mL and the Anti-bacterial activity (MIC), strain BCA 14-1 ([8]; clinical isolate BCA 14-1) was 2 µg/mL. For the same compound, the Anti-bacterial activity (MIC), strain BCA 14-4 ([8]; clinical isolate BCA 14-4) was 2 µg/mL, the Anti-bacterial activity (MIC), strain BCA 14-5 ([8]; clinical isolate BCA 14-5) was 0.5 µg/mL and the Anti-bacterial activity (MIC), strain BCA 14-6 ([8]; clinical isolate BCA 14-6) was 1 µg/mL. For the same compound, the Anti-bacterial activity (MIC), strain BCA 14-7 ([8]; clinical isolate BCA 14-7) was 0.5 µg/mL, the Anti-bacterial activity (MIC), strain BCA 14-8 ([8]; clinical isolate BCA 14-8) was 1 µg/mL and the Anti-bacterial activity (MIC), strain BCA 14-10 ([8]; clinical isolate BCA 14-10) was 0.5 µg/mL. The Anti-bacterial activity (MIC), strain SPN 16-2 ([9]; clinical isolate SPN 16-2) was 8 µg/mL, the Anti-bacterial activity (MIC), strain SPN 16-4 ([9]; clinical isolate SPN 16-4) was 0.5 µg/mL and the Anti-bacterial activity (MIC), strain MRSE 15-1 ([10]; clinical isolate MRSE 15-1) was 0.06 µg/mL. The Anti-bacterial activity (MIC), strain MRSE 15-2 ([10]; clinical isolate MRSE 15-2) was 0.25 µg/mL, the Anti-bacterial activity (MIC), strain MRSE 15-3 ([10]; clinical isolate MRSE 15-3) was 0.25 µg/mL and the Anti-bacterial activity (MIC), strain MRSE 15-7 ([10]; clinical isolate MRSE 15-7) was 0.25 µg/mL. For the same compound, the Anti-bacterial activity (MIC), strain MSSE 15-3 ([11]; clinical isolate MSSE 15-3) was 0.125 µg/mL, the Anti-bacterial activity (MIC), strain MSSE 15-4 ([11]; clinical isolate MSSE 15-4) was 0.125 µg/mL and the Anti-bacterial activity (MIC), strain MSSE 15-5 ([11]; clinical isolate MSSE 15-5) was 0.06 µg/mL. It also gave an Anti-bacterial activity (MIC), strain MSSE 15-6 ([11]; clinical isolate MSSE 15-6) of 0.06 µg/mL, an Anti-bacterial activity (MIC), strain MSSA 15-3 ([12]; clinical isolate MSSA 15-3) of 0.25 µg/mL and an Anti-bacterial activity (MIC), strain MSSA 15-4 ([12]; clinical isolate MSSA 15-4) of 0.125 µg/mL. The Anti-bacterial activity (MIC), strain MSSA 15-5 ([12]; clinical isolate MSSA 15-5) was 0.06 µg/mL, the Anti-bacterial activity (MIC), strain MSSA 15-6 ([12]; clinical isolate MSSA 15-6) was 0.5 µg/mL and the Anti-bacterial activity (MIC), strain ECO+ 15-1 ([13]; clinical isolate ECO+ 15-1) was 16 µg/mL. The Anti-bacterial activity (MIC), strain ECO+ 15-2 ([13]; clinical isolate ECO+ 15-2) was over 32 µg/mL, the Anti-bacterial activity (MIC), strain ECO+ 15-3 ([13]; clinical isolate ECO+ 15-3) was over 32 µg/mL and the Anti-bacterial activity (MIC), strain ECO+ 15-4 ([13]; clinical isolate ECO+ 15-4) was 32 µg/mL. For the same compound, the Anti-bacterial activity (MIC), strain ECO− 15-1 ([13]; clinical isolate ECO− 15-1) was over 32 µg/mL, the Anti-bacterial activity (MIC), strain ECO− 15-2 ([13]; clinical isolate ECO− 15-2) was over 32 µg/mL and the Anti-bacterial activity (MIC), strain ECO− 15-3 ([13]; clinical isolate ECO− 15-3) was over 32 µg/mL. The Anti-bacterial activity (MIC), strain ECO− 15-4 ([13]; clinical isolate ECO− 15-4) was over 32 µg/mL.
